Source: patent US9936701B2, “Herbicidal compounds” (Syngenta Participations AG, priority 2013, dated 2018)

Columns and labels:
[1] = tested on: a variety of test species; test: Pre-emergence herbicidal activity (glasshouse, sprayed one day after sowing, evaluated after 13 days); assay type: in vivo; design: key: 5=total damage to plant; 0=no damage to plant; details: application pre-emergence, rate 1000 g/Ha, scale 0-5
Protocol: Seeds of a variety of test species were sown in standard soil in pots. After cultivation for one day (pre-emergence) under controlled conditions in a glasshouse (at 24/16° C., day/night; 14 hours light; 65% humidity), the plants were sprayed with an aqueous spray solution derived from the formulation of the technical active ingredient in acetone/water (50:50) solution containing 0.5% Tween 20 (polyoxyethelyene sorbitan monolaurate, CAS RN 9005-64-5). The test plants were then grown in a glasshouse under controlled conditions (at 24/16° C., day/night; 14 hours light; 65% humidity) and watered twice daily. After 13 days, the test was evaluated (5=total damage to plant; 0=no damage to plant).

[2] = tested on: a variety of test species; test: Post-emergence herbicidal activity (glasshouse, sprayed after 8 days cultivation, evaluated after 13 days); assay type: in vivo; design: key: 5=total damage to plant; 0=no damage to plant; details: rate 1000 g/Ha, scale 0-5
Protocol: Seeds of a variety of test species were sown in standard soil in pots. After 8 days cultivation (post-emergence) under controlled conditions in a glasshouse (at 24/16° C., day/night; 14 hours light; 65% humidity), the plants were sprayed with an aqueous spray solution derived from the formulation of the technical active ingredient in acetone/water (50:50) solution containing 0.5% Tween 20 (polyoxyethelyene sorbitan monolaurate, CAS RN 9005-64-5). The test plants were then grown in a glasshouse under controlled conditions (at 24/16° C., day/night; 14 hours light; 65% humidity) and watered twice daily. After 13 days, the test was evaluated (5=total damage to plant; 0=no damage to plant).

SMILES: C=COC(=O)OC1C(C)=C(Cl)C(=O)N1c1cc(C(C)(C)C)on1 (stereo not drawn) [A83]
- Pre-emergence herbicidal damage score, ABUTH [1]: 5
- Pre-emergence herbicidal damage score, ALOMY [1]: 4
- Pre-emergence herbicidal damage score, AMARE [1]: 5
- Pre-emergence herbicidal damage score, ECHCG [1]: 5
- Pre-emergence herbicidal damage score, SETFA [1]: 5
- Pre-emergence herbicidal damage score, ZEAMX [1]: 4
- ABUTH (Abutilon theophrasti) damage score, application post-emergence [2]: 5
- ALOMY (Alopecurus myosuroides) damage score, application post-emergence [2]: 5
- AMARE (Amaranthus retroflexus) damage score, application post-emergence [2]: 5
- ECHCG (Echinochloa crus-galli) damage score, application post-emergence [2]: 5
- SETFA (Setaria faberi) damage score, application post-emergence [2]: 5
- ZEAMX (Zea mays) damage score, application post-emergence [2]: 4

SMILES: CC#CCOC(=O)OC1C(C)=C(Cl)C(=O)N1c1cc(C(C)(C)C)on1 (stereo not drawn) [A85]
- Pre-emergence herbicidal damage score, ABUTH [1]: 5
- Pre-emergence herbicidal damage score, ALOMY [1]: 4
- Pre-emergence herbicidal damage score, AMARE [1]: 5
- Pre-emergence herbicidal damage score, ECHCG [1]: 5
- Pre-emergence herbicidal damage score, SETFA [1]: 5
- Pre-emergence herbicidal damage score, ZEAMX [1]: 3
- ABUTH (Abutilon theophrasti) damage score, application post-emergence [2]: 5
- ALOMY (Alopecurus myosuroides) damage score, application post-emergence [2]: 5
- AMARE (Amaranthus retroflexus) damage score, application post-emergence [2]: 5
- ECHCG (Echinochloa crus-galli) damage score, application post-emergence [2]: 5
- SETFA (Setaria faberi) damage score, application post-emergence [2]: 5
- ZEAMX (Zea mays) damage score, application post-emergence [2]: 4

SMILES: COc1ccc(OC(=O)OC2C(C)=C(Cl)C(=O)N2c2cc(C(C)(C)C)on2)cc1 (stereo not drawn) [A86]
- Pre-emergence herbicidal damage score, ABUTH [1]: 3
- Pre-emergence herbicidal damage score, ALOMY [1]: 3
- Pre-emergence herbicidal damage score, AMARE [1]: 5
- Pre-emergence herbicidal damage score, ECHCG [1]: 2
- Pre-emergence herbicidal damage score, SETFA [1]: 2
- Pre-emergence herbicidal damage score, ZEAMX [1]: 1
- ABUTH (Abutilon theophrasti) damage score, application post-emergence [2]: 2
- ALOMY (Alopecurus myosuroides) damage score, application post-emergence [2]: 3
- AMARE (Amaranthus retroflexus) damage score, application post-emergence [2]: 5
- ECHCG (Echinochloa crus-galli) damage score, application post-emergence [2]: 2
- SETFA (Setaria faberi) damage score, application post-emergence [2]: 3
- ZEAMX (Zea mays) damage score, application post-emergence [2]: 0

SMILES: COc1ccccc1OC(=O)OC1C(C)=C(Cl)C(=O)N1c1cc(C(C)(C)C)on1 (stereo not drawn) [A87]
- Pre-emergence herbicidal damage score, ABUTH [1]: 2
- Pre-emergence herbicidal damage score, ALOMY [1]: 2
- Pre-emergence herbicidal damage score, AMARE [1]: 3
- Pre-emergence herbicidal damage score, ECHCG [1]: 1
- Pre-emergence herbicidal damage score, SETFA [1]: 1
- Pre-emergence herbicidal damage score, ZEAMX [1]: 0
- ABUTH (Abutilon theophrasti) damage score, application post-emergence [2]: 2
- ALOMY (Alopecurus myosuroides) damage score, application post-emergence [2]: 2
- AMARE (Amaranthus retroflexus) damage score, application post-emergence [2]: 4
- ECHCG (Echinochloa crus-galli) damage score, application post-emergence [2]: 3
- SETFA (Setaria faberi) damage score, application post-emergence [2]: 2
- ZEAMX (Zea mays) damage score, application post-emergence [2]: 0

SMILES: CC1=C(Cl)C(=O)N(c2cc(C(C)(C)C)on2)C1OC(=O)OCC(C)(C)C (stereo not drawn) [A88]
- Pre-emergence herbicidal damage score, ABUTH [1]: 5
- Pre-emergence herbicidal damage score, ALOMY [1]: 4
- Pre-emergence herbicidal damage score, AMARE [1]: 5
- Pre-emergence herbicidal damage score, ECHCG [1]: 5
- Pre-emergence herbicidal damage score, SETFA [1]: 5
- Pre-emergence herbicidal damage score, ZEAMX [1]: 3
- ABUTH (Abutilon theophrasti) damage score, application post-emergence [2]: 5
- ALOMY (Alopecurus myosuroides) damage score, application post-emergence [2]: 5
- AMARE (Amaranthus retroflexus) damage score, application post-emergence [2]: 5
- ECHCG (Echinochloa crus-galli) damage score, application post-emergence [2]: 5
- SETFA (Setaria faberi) damage score, application post-emergence [2]: 5
- ZEAMX (Zea mays) damage score, application post-emergence [2]: 5

SMILES: CC1=C(Cl)C(=O)N(c2cc(C(C)(C)C)on2)C1OC(=O)c1ccc(C(F)(F)F)nc1 (stereo not drawn) [A90]
- Pre-emergence herbicidal damage score, ABUTH [1]: 4
- Pre-emergence herbicidal damage score, ALOMY [1]: 2
- Pre-emergence herbicidal damage score, AMARE [1]: 5
- Pre-emergence herbicidal damage score, ECHCG [1]: 1
- Pre-emergence herbicidal damage score, SETFA [1]: 2
- Pre-emergence herbicidal damage score, ZEAMX [1]: 1
- ABUTH (Abutilon theophrasti) damage score, application post-emergence [2]: 4
- ALOMY (Alopecurus myosuroides) damage score, application post-emergence [2]: 4
- AMARE (Amaranthus retroflexus) damage score, application post-emergence [2]: 5
- ECHCG (Echinochloa crus-galli) damage score, application post-emergence [2]: 2
- SETFA (Setaria faberi) damage score, application post-emergence [2]: 3
- ZEAMX (Zea mays) damage score, application post-emergence [2]: 1

SMILES: CC1=C(Cl)C(=O)N(c2cc(C(C)(C)C)on2)C1OC(=O)c1sccc1Cl (stereo not drawn) [A91]
- Pre-emergence herbicidal damage score, ABUTH [1]: 1
- Pre-emergence herbicidal damage score, ALOMY [1]: 2
- Pre-emergence herbicidal damage score, AMARE [1]: 4
- Pre-emergence herbicidal damage score, ECHCG [1]: 0
- Pre-emergence herbicidal damage score, SETFA [1]: 0
- Pre-emergence herbicidal damage score, ZEAMX [1]: 0
- ABUTH (Abutilon theophrasti) damage score, application post-emergence [2]: 2
- ALOMY (Alopecurus myosuroides) damage score, application post-emergence [2]: 2
- AMARE (Amaranthus retroflexus) damage score, application post-emergence [2]: 5
- ECHCG (Echinochloa crus-galli) damage score, application post-emergence [2]: 1
- SETFA (Setaria faberi) damage score, application post-emergence [2]: 1
- ZEAMX (Zea mays) damage score, application post-emergence [2]: 0

SMILES: CC1=C(Cl)C(=O)N(c2cc(C(C)(C)C)on2)C1OC(=O)c1ccno1 (stereo not drawn) [A92]
- Pre-emergence herbicidal damage score, ABUTH [1]: 5
- Pre-emergence herbicidal damage score, ALOMY [1]: 4
- Pre-emergence herbicidal damage score, AMARE [1]: 5
- Pre-emergence herbicidal damage score, ECHCG [1]: 5
- Pre-emergence herbicidal damage score, SETFA [1]: 4
- Pre-emergence herbicidal damage score, ZEAMX [1]: 3
- ABUTH (Abutilon theophrasti) damage score, application post-emergence [2]: 5
- ALOMY (Alopecurus myosuroides) damage score, application post-emergence [2]: 5
- AMARE (Amaranthus retroflexus) damage score, application post-emergence [2]: 5
- ECHCG (Echinochloa crus-galli) damage score, application post-emergence [2]: 5
- SETFA (Setaria faberi) damage score, application post-emergence [2]: 5
- ZEAMX (Zea mays) damage score, application post-emergence [2]: 1

SMILES: CCC(=O)OC1C(C)=C(Cl)C(=O)N1c1cc(C(C)(C)C)on1 (stereo not drawn) [A93]
- Pre-emergence herbicidal damage score, ABUTH [1]: 5
- Pre-emergence herbicidal damage score, ALOMY [1]: 4
- Pre-emergence herbicidal damage score, AMARE [1]: 5
- Pre-emergence herbicidal damage score, ECHCG [1]: 4
- Pre-emergence herbicidal damage score, SETFA [1]: 5
- Pre-emergence herbicidal damage score, ZEAMX [1]: 3
- ABUTH (Abutilon theophrasti) damage score, application post-emergence [2]: 5
- ALOMY (Alopecurus myosuroides) damage score, application post-emergence [2]: 5
- AMARE (Amaranthus retroflexus) damage score, application post-emergence [2]: 5
- ECHCG (Echinochloa crus-galli) damage score, application post-emergence [2]: 5
- SETFA (Setaria faberi) damage score, application post-emergence [2]: 5
- ZEAMX (Zea mays) damage score, application post-emergence [2]: 4

SMILES: CCOC(=O)OC1C(C)=C(Cl)C(=O)N1c1noc(C(C)(C)C)c1C#N (stereo not drawn) [A96]
- Pre-emergence herbicidal damage score, ABUTH [1]: 5
- Pre-emergence herbicidal damage score, ALOMY [1]: 4
- Pre-emergence herbicidal damage score, AMARE [1]: 5
- Pre-emergence herbicidal damage score, ECHCG [1]: 5
- Pre-emergence herbicidal damage score, SETFA [1]: 5
- Pre-emergence herbicidal damage score, ZEAMX [1]: 3
- ABUTH (Abutilon theophrasti) damage score, application post-emergence [2]: 5
- ALOMY (Alopecurus myosuroides) damage score, application post-emergence [2]: 5
- AMARE (Amaranthus retroflexus) damage score, application post-emergence [2]: 5
- ECHCG (Echinochloa crus-galli) damage score, application post-emergence [2]: 5
- SETFA (Setaria faberi) damage score, application post-emergence [2]: 5
- ZEAMX (Zea mays) damage score, application post-emergence [2]: 5

SMILES: CC1=C(Cl)C(=O)N(c2noc(C(C)(C)C)c2C#N)C1Cl (stereo not drawn) [A97, 5-tert-butyl-3-(2A-dichloro-3-methyl-5-oxo-2H-pyrrol-1-yl)isoxazole-4-carbonitrile]
- Pre-emergence herbicidal damage score, ABUTH [1]: 5
- Pre-emergence herbicidal damage score, ALOMY [1]: 4
- Pre-emergence herbicidal damage score, AMARE [1]: 5
- Pre-emergence herbicidal damage score, ECHCG [1]: 4
- Pre-emergence herbicidal damage score, SETFA [1]: 5
- Pre-emergence herbicidal damage score, ZEAMX [1]: 3
- ABUTH (Abutilon theophrasti) damage score, application post-emergence [2]: 5
- ALOMY (Alopecurus myosuroides) damage score, application post-emergence [2]: 5
- AMARE (Amaranthus retroflexus) damage score, application post-emergence [2]: 5
- ECHCG (Echinochloa crus-galli) damage score, application post-emergence [2]: 5
- SETFA (Setaria faberi) damage score, application post-emergence [2]: 5
- ZEAMX (Zea mays) damage score, application post-emergence [2]: 3

SMILES: CC1=C(Cl)C(=O)N(c2noc(C(C)(C)C)c2C#N)C1OS(C)(=O)=O (stereo not drawn) [A98]
- Pre-emergence herbicidal damage score, ABUTH [1]: 5
- Pre-emergence herbicidal damage score, ALOMY [1]: 3
- Pre-emergence herbicidal damage score, AMARE [1]: 5
- Pre-emergence herbicidal damage score, ECHCG [1]: 5
- Pre-emergence herbicidal damage score, SETFA [1]: 5
- Pre-emergence herbicidal damage score, ZEAMX [1]: 3
- ABUTH (Abutilon theophrasti) damage score, application post-emergence [2]: 5
- ALOMY (Alopecurus myosuroides) damage score, application post-emergence [2]: 5
- AMARE (Amaranthus retroflexus) damage score, application post-emergence [2]: 5
- ECHCG (Echinochloa crus-galli) damage score, application post-emergence [2]: 5
- SETFA (Setaria faberi) damage score, application post-emergence [2]: 5
- ZEAMX (Zea mays) damage score, application post-emergence [2]: 4

SMILES: CCC(=O)OC1C(C)=C(Cl)C(=O)N1c1cc(C(C)(CC)CC#N)on1 (stereo not drawn) [A99]
- Pre-emergence herbicidal damage score, ABUTH [1]: 5
- Pre-emergence herbicidal damage score, ALOMY [1]: 4
- Pre-emergence herbicidal damage score, AMARE [1]: 5
- Pre-emergence herbicidal damage score, ECHCG [1]: 5
- Pre-emergence herbicidal damage score, SETFA [1]: 5
- Pre-emergence herbicidal damage score, ZEAMX [1]: 3
- ABUTH (Abutilon theophrasti) damage score, application post-emergence [2]: 5
- ALOMY (Alopecurus myosuroides) damage score, application post-emergence [2]: 5
- AMARE (Amaranthus retroflexus) damage score, application post-emergence [2]: 5
- ECHCG (Echinochloa crus-galli) damage score, application post-emergence [2]: 5
- SETFA (Setaria faberi) damage score, application post-emergence [2]: 5
- ZEAMX (Zea mays) damage score, application post-emergence [2]: 5
